According to patent publication US10131652B2, “Pyrimidinyloxy benzene derivatives as herbicides” (E. I. DU PONT DE NEMOURS AND COMPANY, priority 2014, dated 2018):

Columns and labels:
Assay type in all cases: in vivo
[1] = tested on: barnyardgrass (Echinochloa crus-galli); assay: Test B pre-/postemergence plant response
Summary of the method: (§1)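 Evaluation is visual, about 10 days after application, rating injury from 0 (none) to 100 (complete control) relative to untreated controls. Application was a preemergence soil spray on seeded pots or a postemergence spray on one- to two-leaf plants.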

corn (Zea mays) = assay: Test B pre-/postemergence plant response
Summary of the method: as §1

[2] = tested on: giant foxtail (Setaria faberii); assay: Test B pre-/postemergence plant response
Summary of the method: as §1

[3] = tested on: pigweed (Amaranthus retroflexus); assay: Test B pre-/postemergence plant response
Summary of the method: as §1

[4] = tested on: wheat (Triticum aestivum); assay: Test B pre-/postemergence plant response
Summary of the method: as §1

[5] = tested on: barnyardgrass (Echinochloa crus-galli); assay: Test D pre-/postemergence plant response; settings: Postemergence; for Barnyardgrass plant response rating: scale 0 to 100 (0 no effect, 100 complete control); for Plant response rating, Barnyardgrass: scale 0 to 100, 0 no effect, 100 complete control
Summary of the method: (§2)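 Each compound, in non-phytotoxic solvent with surfactant, was sprayed onto soil right after sowing or onto young plants 2 to 18 cm tall. After 13 to 15 days under greenhouse conditions, effects were judged visually against controls on a 0 (no effect) to 100 (complete control) scale.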

[6] = tested on: blackgrass (Alopecurus myosuroides); assay: Test D pre-/postemergence plant response; settings: Postemergence; for Blackgrass plant response rating: scale 0 to 100 (0 no effect, 100 complete control); for Plant response rating, Blackgrass: scale 0 to 100, 0 no effect, 100 complete control
Summary of the method: as §2

[7] = tested on: giant foxtail (Setaria faberii); assay: Test D pre-/postemergence plant response; settings: Postemergence; for Foxtail, Giant plant response rating: scale 0 to 100 (0 no effect, 100 complete control); for Plant response rating, Foxtail, Giant: scale 0 to 100, 0 no effect, 100 complete control
Summary of the method: as §2

[8] = tested on: johnsongrass (Sorghum halepense); assay: Test D pre-/postemergence plant response; settings: Postemergence; for Plant response rating, Johnsongrass: scale 0 to 100, 0 no effect, 100 complete control
Summary of the method: as §2

[9] = tested on: large (Lg) crabgrass (Digitaria sanguinalis); assay: Test D pre-/postemergence plant response; settings: Postemergence; for Crabgrass, Large plant response rating: scale 0 to 100 (0 no effect, 100 complete control); for Plant response rating, Crabgrass, Large: scale 0 to 100, 0 no effect, 100 complete control
Summary of the method: as §2

[10] = tested on: morningglory (Ipomoea coccinea); assay: Test D pre-/postemergence plant response; settings: Postemergence; for Plant response rating, Morningglory: scale 0 to 100, 0 no effect, 100 complete control
Summary of the method: as §2

[11] = tested on: pigweed (Amaranthus retroflexus); assay: Test D pre-/postemergence plant response; settings: Postemergence; for Plant response rating, Pigweed: scale 0 to 100, 0 no effect, 100 complete control
Summary of the method: as §2

[12] = tested on: ragweed (common ragweed, Ambrosia elatior); assay: Test D pre-/postemergence plant response; settings: Postemergence; for Plant response rating, Ragweed: scale 0 to 100, 0 no effect, 100 complete control
Summary of the method: as §2

soybean (Glycine max) = assay: Test D pre-/postemergence plant response; settings: Postemergence; for Plant response rating, Soybean: scale 0 to 100, 0 no effect, 100 complete control
Summary of the method: as §2

[13] = tested on: waterhemp (common waterhemp, Amaranthus rudis); assay: Test D pre-/postemergence plant response; settings: Postemergence; for Plant response rating, Waterhemp: scale 0 to 100, 0 no effect, 100 complete control
Summary of the method: as §2

[14] = tested on: yellow nutsedge (Cyperus esculentus); assay: Test D pre-/postemergence plant response; settings: Postemergence; for Plant response rating, Nutsedge, Yellow: scale 0 to 100, 0 no effect, 100 complete control
Summary of the method: as §2

[15] = 31 g ai/ha, Preemergence, 0 to 100 scale where 0 is no effect and 100 is complete control
[16] = 125 g ai/ha, postemergence, 0 to 100 scale, 0 no effect, 100 complete control
[17] = Postemergence, 31 g ai/ha, 0 to 100 scale (0 no effect, 100 complete control)
[18] = Preemergence, 125 g ai/ha, 0 to 100 scale (0 no effect, 100 complete control)
[19] = 31 g ai/ha, scale 0 to 100 (0 no effect, 100 complete control)

FC(F)(Br)c1cc(-c2ccccc2Oc2ncc(Cl)cn2)no1 [Compound 162]
45: Plant response rating, Blackgrass ([6]; 125 g ai/ha)
30: Plant response rating, Wheat [4, 16] | Blackgrass plant response rating ([6]; 31 g ai/ha) | Plant response rating, Blackgrass ([6]; 62 g ai/ha) | Ragweed plant response rating [12, 19]
100: Barnyardgrass plant response rating [1, 18] | Foxtail, Giant plant response rating [2, 18] | Plant response rating, Pigweed [3, 16] | Plant response rating, Pigweed [3, 17] | Pigweed plant response rating [3, 18] | Plant response rating, Pigweed ([11]; 62 g ai/ha) | Plant response rating, Pigweed ([11]; 125 g ai/ha) | Plant response rating, Waterhemp ([13]; 62 g ai/ha) | Plant response rating, Waterhemp ([13]; 125 g ai/ha)
90: Plant response rating, Barnyardgrass [1, 16] | Plant response rating, Foxtail, Giant [2, 15] | Plant response rating, Foxtail, Giant [2, 16] | Pigweed plant response rating [11, 19]
20: Plant response rating, Barnyardgrass [1, 15] | Plant response rating, Corn (corn (Zea mays); [17]) | Plant response rating, Wheat [4, 17] | Plant response rating, Foxtail, Giant ([7]; 125 g ai/ha) | Plant response rating, Johnsongrass ([8]; 125 g ai/ha) | Plant response rating, Crabgrass, Large ([9]; 125 g ai/ha)
0: Blackgrass plant response rating ([6]; 16 g ai/ha) | Nutsedge, Yellow plant response rating [14, 19]
98: Waterhemp plant response rating [13, 19]
10: Plant response rating, Barnyardgrass [1, 17] | Plant response rating, Foxtail, Giant [2, 17] | Barnyardgrass plant response rating ([5]; 31 g ai/ha) | Foxtail, Giant plant response rating ([7]; 16 g ai/ha) | Foxtail, Giant plant response rating ([7]; 31 g ai/ha) | Plant response rating, Foxtail, Giant ([7]; 62 g ai/ha) | Plant response rating, Johnsongrass ([8]; 62 g ai/ha) | Plant response rating, Crabgrass, Large ([9]; 62 g ai/ha) | Soybean plant response rating (soybean (Glycine max); [19]) | Plant response rating, Nutsedge, Yellow ([14]; 125 g ai/ha)
5: Barnyardgrass plant response rating ([5]; 16 g ai/ha) | Johnsongrass plant response rating [8, 19] | Crabgrass, Large plant response rating ([9]; 16 g ai/ha) | Crabgrass, Large plant response rating ([9]; 31 g ai/ha) | Plant response rating, Nutsedge, Yellow ([14]; 62 g ai/ha)
80: Plant response rating, Pigweed [3, 15]
50: Plant response rating, Ragweed ([12]; 125 g ai/ha) | Plant response rating, Soybean (soybean (Glycine max); 125 g ai/ha)
40: Plant response rating, Corn (corn (Zea mays); [16]) | Plant response rating, Ragweed ([12]; 62 g ai/ha) | Plant response rating, Soybean (soybean (Glycine max); 62 g ai/ha)
75: Plant response rating, Morningglory ([10]; 62 g ai/ha) | Plant response rating, Morningglory ([10]; 125 g ai/ha)
15: Plant response rating, Barnyardgrass ([5]; 62 g ai/ha) | Plant response rating, Barnyardgrass ([5]; 125 g ai/ha)
65: Morningglory plant response rating [10, 19]
